Assay results as given in PubChem BioAssay (NCI).
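Cells were grown in 96-well plates and exposed to each compound for 48 hours at five concentrations; endpoints were interpolated linearly between bracketing concentrations, or set to the highest concentration if not reached. TGI marks complete inhibition of growth.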

Tests used:
Test in all cases: inhibition of tumour cell growth, NCI panel, 48 h
786-0 renal = test system: 786-0 renal
A549 NSCLC = test system: A549 NSCLC
ACHN renal = test system: ACHN renal
CAKI-1 renal = test system: CAKI-1 renal
CCRF-CEM leukemia = test system: CCRF-CEM leukemia
COLO 205 colon = test system: COLO 205 colon
DLD-1 colon = test system: DLD-1 colon
DMS 114 small cell lung = test system: DMS 114 small cell lung
DMS 273 small cell lung = test system: DMS 273 small cell lung
EKVX NSCLC = test system: EKVX NSCLC
HCC-2998 colon = test system: HCC-2998 colon
HCT-116 colon = test system: HCT-116 colon
HCT-15 colon = test system: HCT-15 colon
HL-60(TB) leukemia = test system: HL-60(TB) leukemia
HOP-62 NSCLC = test system: HOP-62 NSCLC
HT29 colon = test system: HT29 colon
IGROV1 ovarian = test system: IGROV1 ovarian
K-562 leukemia = test system: K-562 leukemia
KM20L2 colon = test system: KM20L2 colon
LOX IMVI melanoma = test system: LOX IMVI melanoma
M14 melanoma = test system: M14 melanoma
M19-MEL melanoma = test system: M19-MEL melanoma
MALME-3M melanoma = test system: MALME-3M melanoma
MOLT-4 leukemia = test system: MOLT-4 leukemia
NCI-H226 lung = test system: NCI-H226 lung
NCI-H23 lung = test system: NCI-H23 lung
NCI-H460 lung = test system: NCI-H460 lung
NCI-H522 lung = test system: NCI-H522 lung
OVCAR-3 ovarian = test system: OVCAR-3 ovarian
OVCAR-5 ovarian = test system: OVCAR-5 ovarian
OVCAR-8 ovarian = test system: OVCAR-8 ovarian
RPMI-8226 leukemia = test system: RPMI-8226 leukemia
RXF 393 renal = test system: RXF 393 renal
SF-268 CNS = test system: SF-268 CNS
SF-295 CNS = test system: SF-295 CNS
SF-539 CNS = test system: SF-539 CNS
SK-MEL-2 melanoma = test system: SK-MEL-2 melanoma
SK-MEL-28 melanoma = test system: SK-MEL-28 melanoma
SK-MEL-5 melanoma = test system: SK-MEL-5 melanoma
SK-OV-3 ovarian = test system: SK-OV-3 ovarian
SN12C renal = test system: SN12C renal
SNB-19 CNS = test system: SNB-19 CNS
SNB-75 CNS = test system: SNB-75 CNS
SR leukemia = test system: SR leukemia
SW-620 colon = test system: SW-620 colon
TK-10 renal = test system: TK-10 renal
U251 CNS = test system: U251 CNS
UACC-257 melanoma = test system: UACC-257 melanoma
UACC-62 melanoma = test system: UACC-62 melanoma
UO-31 renal = test system: UO-31 renal
A498 renal = test system: A498 renal
BT-549 breast = test system: BT-549 breast
DU-145 prostate = test system: DU-145 prostate
HOP-92 NSCLC = test system: HOP-92 NSCLC
HS 578T breast = test system: HS 578T breast
KM12 colon = test system: KM12 colon
MCF7 breast = test system: MCF7 breast
MDA-MB-231 breast = test system: MDA-MB-231 breast
MDA-MB-435 = test system: MDA-MB-435
MDA-N = test system: MDA-N
NCI/ADR-RES ovarian = test system: NCI/ADR-RES ovarian
OVCAR-4 ovarian = test system: OVCAR-4 ovarian
PC-3 prostate = test system: PC-3 prostate
T-47D breast = test system: T-47D breast

Compound: CC1CCc2c(sc3ncnc(N/N=C/c4ccc(Cl)c(Cl)c4)c23)C1 (centres undefined)
- TGI (786-0 renal): 55.8 µM
- TGI (A549 NSCLC): 34.4 µM
- TGI (ACHN renal): 58 µM
- TGI (CAKI-1 renal): 56.6 µM
- TGI (CCRF-CEM leukemia): 41.6 µM
- TGI (COLO 205 colon): 71.6 µM
- TGI (DLD-1 colon): > 100 µM
- TGI (DMS 114 small cell lung): 13.3 µM
- TGI (DMS 273 small cell lung): 39.6 µM
- TGI (EKVX NSCLC): 89.8 µM
- TGI (HCC-2998 colon): > 100 µM
- TGI (HCT-116 colon): > 100 µM
- TGI (HCT-15 colon): > 100 µM
- TGI (HL-60(TB) leukemia): > 100 µM
- TGI (HOP-62 NSCLC): > 100 µM
- TGI (HT29 colon): > 100 µM
- TGI (IGROV1 ovarian): > 100 µM
- TGI (K-562 leukemia): > 100 µM
- TGI (KM20L2 colon): > 100 µM
- TGI (LOX IMVI melanoma): 54.6 µM
- TGI (M14 melanoma): 30.2 µM
- TGI (M19-MEL melanoma): 96.2 µM
- TGI (MALME-3M melanoma): > 100 µM
- TGI (MOLT-4 leukemia): > 100 µM
- TGI (NCI-H226 lung): 49.4 µM
- TGI (NCI-H23 lung): 79.8 µM
- TGI (NCI-H460 lung): 42.2 µM
- TGI (NCI-H522 lung): 21 µM
- TGI (OVCAR-3 ovarian): 57.4 µM
- TGI (OVCAR-5 ovarian): > 100 µM
- TGI (OVCAR-8 ovarian): 58 µM
- TGI (RPMI-8226 leukemia): > 100 µM
- TGI (RXF 393 renal): 70.3 µM
- TGI (SF-268 CNS): > 100 µM
- TGI (SF-295 CNS): 43.2 µM
- TGI (SF-539 CNS): 60.6 µM
- TGI (SK-MEL-2 melanoma): > 100 µM
- TGI (SK-MEL-28 melanoma): > 100 µM
- TGI (SK-MEL-5 melanoma): 51.3 µM
- TGI (SK-OV-3 ovarian): 89.6 µM
- TGI (SN12C renal): > 100 µM
- TGI (SNB-19 CNS): 74.3 µM
- TGI (SNB-75 CNS): 61.6 µM
- TGI (SR leukemia): 33 µM
- TGI (SW-620 colon): > 100 µM
- TGI (TK-10 renal): > 100 µM
- TGI (U251 CNS): 20 µM
- TGI (UACC-257 melanoma): > 100 µM
- TGI (UACC-62 melanoma): 64.5 µM
- TGI (UO-31 renal): 43.8 µM

Compound: C=C(C)C(=O)OC1CC2(C)OC2CC(OC(C)=O)/C(C)=C/C2OC(=O)C(=C)C21 (centres undefined)
- TGI (786-0 renal): 6.37 µM
- TGI (A498 renal): 26.4 µM
- TGI (A549 NSCLC): 42.5 µM
- TGI (ACHN renal): 3.34 µM
- TGI (BT-549 breast): 5.41 µM
- TGI (CAKI-1 renal): 9.84 µM
- TGI (CCRF-CEM leukemia): 0.654 µM
- TGI (COLO 205 colon): 3.42 µM
- TGI (DU-145 prostate): 4.7 µM
- TGI (EKVX NSCLC): 18.2 µM
- TGI (HCC-2998 colon): 15.1 µM
- TGI (HCT-116 colon): 3.61 µM
- TGI (HCT-15 colon): 1.86 µM
- TGI (HL-60(TB) leukemia): 1.14 µM
- TGI (HOP-62 NSCLC): 26.5 µM
- TGI (HOP-92 NSCLC): 12.5 µM
- TGI (HS 578T breast): 30.6 µM
- TGI (HT29 colon): 6.98 µM
- TGI (IGROV1 ovarian): 18.6 µM
- TGI (K-562 leukemia): 4.62 µM
- TGI (KM12 colon): 33.7 µM
- TGI (LOX IMVI melanoma): 7.67 µM
- TGI (M14 melanoma): 9.39 µM
- TGI (MALME-3M melanoma): 3.23 µM
- TGI (MCF7 breast): 12.2 µM
- TGI (MDA-MB-231 breast): 18.5 µM
- TGI (MDA-MB-435): 7.5 µM
- TGI (MDA-N): 8.59 µM
- TGI (MOLT-4 leukemia): 6.69 µM
- TGI (NCI-H226 lung): 48 µM
- TGI (NCI-H23 lung): 19.4 µM
- TGI (NCI-H460 lung): 9.29 µM
- TGI (NCI-H522 lung): 0.851 µM
- TGI (NCI/ADR-RES ovarian): 18.2 µM
- TGI (OVCAR-3 ovarian): 7.96 µM
- TGI (OVCAR-4 ovarian): 23.7 µM
- TGI (OVCAR-5 ovarian): 17.5 µM
- TGI (OVCAR-8 ovarian): 18.7 µM
- TGI (PC-3 prostate): 22.5 µM
- TGI (RPMI-8226 leukemia): 3.49 µM
- TGI (RXF 393 renal): 4.64 µM
- TGI (SF-268 CNS): 15.3 µM
- TGI (SF-295 CNS): 30.3 µM
- TGI (SF-539 CNS): 8.57 µM
- TGI (SK-MEL-2 melanoma): 18.1 µM
- TGI (SK-MEL-28 melanoma): 1.94 µM
- TGI (SK-MEL-5 melanoma): 21.1 µM
- TGI (SK-OV-3 ovarian): > 91.3 µM
- TGI (SN12C renal): 9.37 µM
- TGI (SNB-19 CNS): 28.7 µM
- TGI (SNB-75 CNS): 42.3 µM
- TGI (SR leukemia): 4.47 µM
- TGI (SW-620 colon): 6.98 µM
- TGI (T-47D breast): 14.4 µM
- TGI (TK-10 renal): 14.1 µM
- TGI (U251 CNS): 25.1 µM
- TGI (UACC-257 melanoma): 18.5 µM
- TGI (UACC-62 melanoma): 17.8 µM
- TGI (UO-31 renal): 12.5 µM
